Earlier results, collected in patent publication US11903950B2, “BCL-2 inhibitors” (Newave Pharmaceutical Inc., priority 2018, dated 2024).

Tests used:
[1] = test system: xenograft models of small-cell lung cancer and acute lymphoblastic leukemia; conditions: oral administration, alone
[2] = test system: circulating platelets; conditions: clinical trial, patients

CC1(C)CCC(c2ccc(Cl)cc2)=C(CN2CCN(c3ccc(C(=O)NS(=O)(=O)c4ccc(N[C@H](CCN5CCOCC5)CSc5ccccc5)c(S(=O)(=O)C(F)(F)F)c4)cc3)CC2)C1 [ABT-263]
tumor regression [1]: complete tumor regressions | number of circulating platelets [2]: rapid, concentration-dependent decrease in the number of circulating platelets
